Measurements published in patent publication US20100168112A1, “2-Substituted and 4-substituted aryl nitrone compounds” (RENOVIS, INC., priority 2004, published 2010).

What was measured:
1K1C rats = experiment: Kidney ischemia-reperfusion injury, one-kidney one-clip (1K1C) model, fractional excretion of sodium; format: in vivo
Method: Rats were individually housed in a modified cage that was equipped with a raised mesh bottom to separate the fecal product from urine. Before the test, all animals were withheld from food and water overnight. In the morning of the test, normal saline (i.e., 0.9% sodium chloride) was given via oral gavage at […] (Lipschitz, W. L. Hadidian, Z. & Kerpcar, A.: Bioassay of diuretics., J. Pharmacol. Exp. Ther., 79: 97-110, 1943). Samples of blood and urine were collected (standard procedures) at time points (1 and/or 5 hrs after fluid intake) from animals, centrifuged, and kept at 4 degrees until analysis for factors that reflect renal functions. Sodium and creatinine levels were determined by Quality Clinical Labs, Inc. (Mountain View, Calif.). Sodium concentrations were determined by ion selective electrode (standard procedures). Creatinine levels were determined by the alkaline picrated (Jaffe) reaction as described (Liobat-Estelles, M., Sevillano-Cabeja, A. & Campines-Falco, P.: Kinetic chemometric studies of the determination of creatinine using the Jaffe reaction. Part I: kinetics of the reaction; analytical conclusion. Analyst, 11: 597-602, 1989). Fractional excretion of sodium (FENa+), a parameter for ion-handling by the kidney, was calculated, using the following equation: =UNa×Pcr/PNa×Ucr, where UNa is the concentration of sodium in urine; Pcr is the plasma concentration of creatinine; PNa is the […]; and Ucr is the concentration of creatinine in the urine.
After the data for the calculation of basal levels of FENa+ was obtained (Table 16), rats were anesthetized with pentobarbital (65 mg/kg, i.p.). The abdominal region was shaved with a safety razor and sterilized with povidone iodine solution. A midline incision was made and the right kidney was exposed. The right renal pedicle and right urether were both ligated twice with 4-0 sutures and cut between the ligations. The right kidney was then removed. 7 days later, these rats, after another overnight food-water deprivation, were randomly assigned into 3 groups and orally given either Compound 62 (50 mg/kg, at the volume of 1 ml/kg,p.o.) or its vehicle (i.e., 96% of 0.5% CMC and 4 of 20% Tween 80, at the volume of 1 ml/kg, p.o.) 1 hr before kidney ischemia was produced. Positive controls were performed using quercetin (30 mg/kg, i.p.) given 2 hrs before ischemia (Kahraman, A., Erkasap, N., Serteser, M. & Koken, T.: Protective effect of quercetin on renal ischemia/reperfusion injury in rats. J. Nephrol., 16: 219-224, 2003). Animals were then anesthetized and had their left kidneys exposed after opening of their abdominal cavities. A non-traumatic vascular clamp was applied to the left renal pedicle (the ischemia phase), which was released 45 min later (the reperfusion phase). Lipschitz test was then conducted to measure ion-handling capabilities. Normal saline was orally administered at […] as soon as the vascular clamp was released. 60- and 300-min after reperfusion, plasma and urine samples were obtained.

STZ-diabetic rats = experiment: Diabetic neuropathy, mechanical hyperalgesia (paw-withdrawal reflex test, Basile Analgesymeter); format: in vivo, Sprague Dawley (SD) rats; conditions: p.o., bid; for PWT (paw-withdrawal threshold), mechanical hyperalgesia: STZ-diabetic rats, mean ± SEM
Text: In this example, the ability of Compound 62 to produce beneficial effects in protecting against and/or reversing the pathology of neuropathy in a streptozotocin (STZ)-induced rat model of diabetes. To evaluate if chronic treatment with Compound 62 protects the diabetic animals from developing neuropathy, they were examined for mechanical hyperalgesia responses.
Adult male Sprague Dawley (SD) rats weighing 250-300 gm (Charles River Laboratories, San Diego, Calif.) were used. The animal room was lighted artificially at a 12-hr light-dark cycle (from 7:00 A.M. to 7:00 P.M.) with water and food supply ad libitum. Animals were allocated randomly into groups. Forty-nine (49) days prior to the behavioral tests, rats received a bolus injection of STZ (75 mg/kg, i.v.). STZ was dissolved in 0.1 M sodium citrate buffer, pH 4.5 solution, at the concentration of 75 mg/ml. To ensure the development of hyperglycemia, their non-fasted levels of glucose in whole blood, obtained via tail veins, were evaluated, using a glocometer (Accucheck®, Roche Diagnostics, Palo Alto, Calif.), once a week. Animals failing to show hyperglycemic conditions (i.e., whole blood glucose>120 mg/dL) were removed from the study. Diabetic rats were treated orally with Compound 62 (5 mg/kg or 25 mg/kg, both bid) or vehicle (1 ml/kg, bid), starting the date of STZ-injection. Compound 62 was dissolved in vehicle, which is composed of 96% of 0.5% CMC and 4% of 10% Tween 80. As a control, a group of naive rats received oral Compound 62 (25 mg/kg, bid) or vehicle (1 ml/kg, bid) treatment. Each group had >12 rats. Time-effect curves of the STZ diabetic rats (Compound 62 vs. Vehicle) were compared with each other, while curves of the naive rats (Compound 62 vs. Vehicle) were compared with each other. The comparisons were conducted, using two-way (group×time) repeated measures analysis of variance (ANOVA) followed by Fishers post-hoc test. A probability value of p<0.05 was considered as statistically significant.
Before the experiments, these rats were trained in the paw-withdrawal reflex test, using a Basile Analgesymeter (Ugo Basile, Biological Research Apparatus, Comerio VA, Italy), which applies a linearly increasing mechanical force to the dorsum of the rats hind paw. The training of mechanical nociceptive flexion reflex response was performed on lightly restrained rats, at 5-min intervals for 1 hr each day for a period of 5 days. On the day of the experiment, paw-withdrawal thresholds (PWT) (i.e., mechanical force that causes the animal to withdraw its paw from the stimulus) were measured at 5-min intervals for 1 hr. The mean was obtained from the average of the last 6 PWT readings. […]

[1] = 1K1C rats, Compound 62 50 mg/kg p.o. 1 hr before ischemia, quercetin 30 mg/kg i.p. 2 hrs before, 45 min ischemia, mean ± SEM

For CC(C)(C)/[N+]([O-])=C/c1ccc(S(C)(=O)=O)cc1 [Compound 62, N-tert-Butyl-C-[4-(methanesulfonyl)phenyl]nitrone], the “effect on FENa+ compared with the vehicle treatment group (in words)” value (1K1C rats; 1K1C rats, 50 mg/kg p.o., acutely dosed) was “significantly enhanced FENa+ 5-hr after reperfusion”, the “1-hr post-ischemic FENa+ (%)” value (1K1C rats; [1]) was 0.52 ± 0.29% and the “5-hr post-ischemic FENa+ (%)” value (1K1C rats; [1]) was 2.52 ± 0.5%. The “FENa+ (%) pre-surgery (basal) levels” value (1K1C rats; rats before 1K1C modeling, group baseline, mean ± SEM) was 1.71 ± 0.36%, the “significantly reversed mechanical hyperalgesia compared with vehicle-treated STZ-diabetic rats (in words)” value (STZ-diabetic rats; 5 mg/kg, x49 d) was “not” and the “reversal of mechanical hyperalgesia compared with vehicle-treated STZ-diabetic rats (in words)” value (STZ-diabetic rats; 25 mg/kg, x49 d) was “significantly reversed mechanical hyperalgesia”. For the same compound, the “PWT (paw-withdrawal threshold), mechanical hyperalgesia” value (STZ-diabetic rats; 5 mg/kg, x49 d (low dose, 62L)) was 70.29 ± 3.18 GRAMS and the “PWT (paw-withdrawal threshold), mechanical hyperalgesia” value (STZ-diabetic rats; 25 mg/kg, x49 d (high dose, 62H)) was 86.86 ± 4.79 GRAMS.
